{
  "source": "patent US20210040151A1",
  "about": "“MICROMOLECULE POLYPEPTIDE AND USE THEREOF” (NANFANG HOSPITAL OF SOUTHERN MEDICAL UNIVERSITY, priority 2019, published 2021)",
  "key": {"[1]": {"tested_on": "UUO mice", "assay": "Kidney fibrosis in UUO (unilateral ureter ligation) mouse model: sirus scarlet staining, fibronectin immunostaining, western blot", "format": "in vivo, BALB/C mice", "procedure": "(§1) BALB/C mice, male and female, a weight ranging from 20 g to 22 g, and a SPF grade.\n(§2) The animals were weighed and numbered. 18 healthy mice with a weight ranging from 20 g to 22 g were selected and randomly divided into 3 groups, with 6 mice in each group, including a sham operation group, a model group and an administration group.\n(§3) 1) Sham operation group: at a room temperature, after mice were anaesthetized with 3% pentobarbital sodium at 1 ml/kg body weight, a left abdomen part of 2 cm to 3 cm was selected as an incision; and skin, a subcutaneous layer, a muscular layer and a peritoneum were cut layer by layer after local disinfection, and then were sutured layer by layer immediately after finding a left ureter. After local disinfection, the mice were verified and marked, and then placed in a corresponding mouse cage.\n(§4) 2) Model control group: anesthetization and disinfection were performed same as the sham operation group. Skin, a subcutaneous layer, a muscular layer and a peritoneum were cut layer by layer, and then were sutured layer by layer after finding a left ureter and performing a ligation at an upper ⅓ segment of the ureter. After local disinfection, the mice were verified and marked, and then placed in a corresponding mouse cage.\nas §4, with “3) Administration” for “2) Model control”, “as” for “as the”\nKP-6T or KP-6 water soluble powder was diluted with sterile 0.01 Mol glacial acetic acid solution to a storage concentration of 10 mg/ml. The mice of each experimental group were raised in different cages. The sham operation group was only observed. The model control group was only given 0.01 Mol glacial acetic acid solution by tail vein injection. The administration group was given glacial acetic acid solution containing KP-6T or KP-6 of 0.5 mg/kg of body weight by tail vein injection on the 1st or 5th day after UUO operation for 6 consecutive days. The mice in each group were euthanized after 7 days or 11 days of raising, left kidneys were taken, and then tissues were respectively fixed with 10% neutral formaldehyde and frozen with liquid nitrogen. The formaldehyde-fixed tissues were dehydrated, embedded, sliced and flaked, and then subjected to sirus scarlet staining and fibronectin immumohistochemical staining respectively. A protein was extracted after homogenization of the frozen tissues, and a fibrosis index, and expression levels of an active-β-catenin and a target gene thereof were detected by western blot.\n1) A degree of kidney tissue fibrosis was detected by sirus scarlet staining."}, "[2]": {"tested_on": "β-catenin signal pathway", "assay": "β-catenin signal pathway in kidney tissue of UUO mice: western blot, mRNA of target genes", "format": "in vivo, BALB/C mice", "procedure": "as §1, §2, §3, §4\nas §4, with “3) Administration” for “2) Model control”, “as” for “as the”\nKP-6T or KP-6 water soluble powder was diluted with sterile 0.01 Mol glacial acetic acid solution to a storage concentration of 10 mg/ml. The mice of each experimental group were raised in different cages. […] A protein was extracted after homogenization of the frozen tissues, and a fibrosis index, and expression levels of an active-β-catenin and a target gene thereof were detected by western blot."}, "[3]": {"conditions": "UUO mice, 0.5 mg/kg tail vein injection for 6 days from 1st or 5th day after UUO, vs model control group (FIG. 2 and FIG. 5)"}, "[4]": {"conditions": "advanced UUO mouse, administration from 5th day after UUO, 0.5 mg/kg tail vein, vs model group (FIG. 7)"}, "[5]": {"conditions": "advanced UUO mouse, administration from 5th day after UUO, 0.5 mg/kg tail vein, vs model group (FIG. 7), 0.5 mg/kg"}, "[6]": {"conditions": "UUO mice, 0.5 mg/kg tail vein injection for 6 days from 1st or 5th day after UUO, vs model control group (FIG. 3 and FIG. 6)"}},
  "note": "Entries after “also recorded” stand apart in the source; their conditions may differ.",
  "data": [
    {"sequence": "LQDAYGGWANR (Synthesized by Nanjing Genscript Biotechnology Co. Ltd.) [KP-6T]", "values": [
      {"measurement": "collagen deposition in renal interstitium (sirus scarlet staining)", "setting": "[1]; UUO mice, 0.5 mg/kg tail vein injection for 6 consecutive days from 1st or 5th day after UUO, vs model control group (FIG. 1 and FIG. 4)", "value": "significantly lower"},
      {"measurement": "level of fibronectin in kidneys", "setting": "[1]; [3]", "value": "significantly reduced"},
      {"measurement": "level of smooth muscle actin α (α-SMA) in kidneys", "setting": "[1]; [3]", "value": "significantly reduced"},
      {"measurement": "collagen deposition in the renal interstitium", "setting": "[1]; administered the 5th day after UUO", "value": "significantly inhibit"},
      {"measurement": "deposition of extracellular matrix in renal interstitium", "setting": "[1]; [4]", "value": "significantly reduced"},
      {"measurement": "protein Klotho expressed by healthy kidney tubular epithelial cells", "setting": "[1]; [4]", "value": "recovered"},
      {"measurement": "level of fibronectin in kidneys", "setting": "[1]; [5]", "value": "significantly reduced; also recorded: significantly inhibit"},
      {"measurement": "level of smooth muscle actin α (α-SMA) in kidneys", "setting": "[1]; [5]", "value": "significantly reduced; also recorded: significantly inhibit"},
      {"measurement": "expression level of downstream target gene of β-catenin (PAI-1, Snail-1, MMP7 mRNA) in kidneys", "setting": "[2]; [6]", "value": "significantly reduced"},
      {"measurement": "expression level of β-catenin protein in kidneys", "setting": "[2]; [6]", "value": "significantly reduced"},
      {"measurement": "Wnt signal pathway (active-β-catenin)", "setting": "[2]; [4]", "value": "inhibited"}
    ]}
  ]
}
